Measured values reported in article PMC4171110, “BdcA, a Protein Important for Escherichia coli Biofilm Dispersal, Is a Short-Chain Dehydrogenase/Reductase that Binds Specifically to NADPH” (PLoS ONE, 2014).

Experiments:
BdcA [1] = target: T1, BdcA (Escherichia coli, UniProt P39333); experiment: isothermal titration calorimetry; assay type: binding
T1 construct: full-length; N-terminal Thio6-His6 tag removed with TEV protease; expressed in E. coli BL21-Gold (DE3)
T1 sequence (P39333 1-237): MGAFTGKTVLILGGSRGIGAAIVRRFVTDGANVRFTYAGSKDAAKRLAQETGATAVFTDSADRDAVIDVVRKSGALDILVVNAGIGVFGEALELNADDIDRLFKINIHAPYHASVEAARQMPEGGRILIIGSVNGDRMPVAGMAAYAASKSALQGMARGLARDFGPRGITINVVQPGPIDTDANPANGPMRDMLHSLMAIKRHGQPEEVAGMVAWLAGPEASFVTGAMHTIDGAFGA
Text: isothermal titration calorimetry on BdcA

BdcA [2] = target: T1, BdcA; experiment: differential scanning fluorimetry (SYPRO Orange); assay type: binding; conditions: 20 mM HEPES pH 7.5; 8 µM protein, 160 µM ligand
Text: differential scanning fluorimetry (SYPRO Orange) on BdcA

[3] = target: the molecule itself; experiment: SEC; Superdex 75 26/60, 20 mM Tris pH 7.5, 100 mM NaCl, 0.5 mM TCEP; elution volume compared with MW standards (158, 44, 17 kDa)

Row | Kd (BdcA [1]) | ΔTm (°C) (BdcA [2]) | Molecule | stoichiometry N [3]
1 | 25.9 ± 4.1 µM | 3.1 °C | NC(=O)C1=CN([C@@H]2O[C@H](COP(=O)(O)OP(=O)(O)OC[C@H]3O[C@@H](n4cnc5c(N)ncnc54)[C@H](OP(=O)(O)O)[C@@H]3O)[C@@H](O)[C@H]2O)C=CC1 [NADPH] | –
2 | – | 1.0 °C | NC(=O)c1ccc[n+]([C@@H]2O[C@H](COP(=O)(O)OP(=O)(O)OC[C@H]3O[C@@H](n4cnc5c(N)ncnc54)[C@H](OP(=O)(O)O)[C@@H]3O)[C@@H](O)[C@H]2O)c1 [NADP] | –
3 | – | – | BdcA (enzyme, E. coli, UniProt P39333 1-237, looked up, BdcA (YjgI), short-chain dehydrogenase/reductase of E. coli, full-length bdcA gene in the RP1B vector; monomer MW 24.9 kDa as printed; Tag removed with TEV protease; Homodimer in the crystal and in solution; also called YjgI; BcdA; source: E. coli BL21-Gold (DE3), purified (HisTrap, TEV cleavage, Ni-NTA, SEC); not shown: Thio6-His6, N-terminal, cleaved) MGAFTGKTVLILGGSRGIGAAIVRRFVTDGANVRFTYAGSKDAAKRLAQETGATAVFTDSADRDAVIDVVRKSGALDILVVNAGIGVFGEALELNADDIDRLFKINIHAPYHASVEAARQMPEGGRILIIGSVNGDRMPVAGMAAYAASKSALQGMARGLARDFGPRGITINVVQPGPIDTDANPANGPMRDMLHSLMAIKRHGQPEEVAGMVAWLAGPEASFVTGAMHTIDGAFGA | 2
